Tests used:
[1] = test system: osteoarthritis of the knees; test: case report, person with osteoarthritis of the knees (Example 180); type: in vivo, human; conditions: for success of earlier analgesic treatment of osteoarthritis of the knees: treatment for periods during 8 years
Method: They were then treated with the complex of the invention disclosed in example 56 (1500 mg/day). […] The improvement persisted for the entire treatment period of 10 weeks, where after the treatment was terminated.

[2] = test system: arachidonic acid induced ear oedema; test: arachidonic acid induced ear inflammation test in the mouse (Example 177); type: in vivo; conditions: i.p., 30 minutes before arachidonic acid, ears weighed one hour after application
Method: (§1) The objective of this study is to assess the effect of three doses of two chemical complexes of the invention systemically administered in the arachidonic acid induced ear inflammation test in the mouse, a commonly employed method for screening and evaluation of antiinflammatory drugs. Dexamethasone was employed as reference compound.
(§2) The study was performed in female BALB/ca mice from M & B A/S, DK-8680 Ry. At start of the acclimatisation period the mice were in the weight range of 20 g (+/−5 g).
On the day of arrival the animals were randomly allocated to groups of 8 mice.
(§3) The test substances and reference compound were administered intraperitoneally in volumes of 20 ml per kg body weight 30 minutes before application of arachidonic acid to the ear.
All groups were treated with 20 μl arachidonic acid, 100 mg/ml in acetone, on the right ear. […]
(§4) Mean weights and standard deviations were calculated. Relative ear oedema was assessed as the weight difference between right and left ear of each mouse expressed as percent of the left ear. Percent inhibition of the relative ear oedema compared with the vehicle treated groups was calculated for the test substance and reference compound treated groups.
All visible signs of ill health and any behavioural changes were recorded daily during the study. Any deviation from normal was recorded with respect to time of onset, duration and intensity. […]

[3] = test system: muscular pain; test: case report, with muscular pain (Example 179); type: in vivo, human
Method: They were then treated with the complex of the invention disclosed in example 56 (1500 mg/day) instead of glucosamine sulfate. […] After two weeks they were symptom free for the first time in 6 years, which persisted for another 6 weeks of treatment, where after the treatment was terminated.

[4] = test system: arachidonic acid induced ear oedema; test: arachidonic acid induced ear inflammation test in the mouse, complex versus its components (Example 178); type: in vivo; conditions: i.p.; for inhibition of ear oedema, in words: doses of T17
Method: as §1, with “a dose of a complex according to compared to the effect of the corresponding” for “three”, “the components” for “two chemical complexes”, “complex. All compounds were” for “invention”, “Methylprednisolone” for “Dexamethasone”
as §2
On the day of arrival the animals were randomly allocated to groups of 10 mice.
as §3
All groups were treated with 20 μl arachidonic acid, 100 mg/ml in acetone, on the right ear.
One hour after the arachidonic acid application the mice were sacrificed, the ears cut from the tip with a punch biopsy knife (8 mm diameter) and weighed.
as §4
All visible signs of ill health and any behavioural changes were recorded daily during the study. Any deviation from normal was recorded with respect to time of onset, duration and intensity.
Differences in relative ear oedema between the vehicle treated group and the other groups were tested for significance employing a non-parametric statistical method of analysis, the Mann-Whitney U test. The required level of significance will be p<0.05. […] All statistical analysis was performed employing the statistical software package Analyse-it v. 1.62.

Q: For N[C@H]1C(O)O[C@H](CO)[C@@H](O)[C@@H]1O (stereo partly shown) [glucosamine], which “effect of earlier treatment on osteoarthritis of the knees” value ([1]; recommended dose, different formulations) is on record?
A: very limited effect

Q: How did the “success of earlier analgesic treatment of osteoarthritis of the knees” value (from here on “success … of the knees”) [1] turn out when O=C(O)Cc1ccccc1Nc1c(Cl)cccc1Cl [diclofenac] was run?
A: limited success

Q: C[C@@H]1C[C@H]2[C@@H]3CCC4=CC(=O)C=C[C@]4(C)[C@@]3(F)[C@@H](O)C[C@]2(C)[C@@]1(O)C(=O)CO [Dexamethasone] was tested. Which “% Inhibition of relative ear oedema” value ([2]; 2 mg/kg) did it give?
A: 0%

Q: What about the “% Inhibition of relative ear oedema” value ([2]; 6 mg/kg) of the same molecule?
A: 0%

Q: With CC(C)Cc1ccc(C(C)C(=O)O)cc1 (stereo not shown) [ibuprofen] as the molecule, how does the “success of earlier analgesic treatment of muscular pain” value ([3]; treatment for periods during 6 years) read?
A: limited success

Q: Which “improvement of muscular pain symptoms on earlier treatment” value ([3]; 1500 mg a day, continuously the last year) does the source give for N[C@H]1C(O)O[C@H](CO)[C@@H](O)[C@@H]1O.O=S(=O)(O)O (stereo partly shown) [Glucosamine sulfate] here?
A: small improvement

Q: What about the “% Inhibition of relative ear oedema” value ([4]; 997 mg/kg) of the same molecule?
A: 9%

Q: What about the “inhibition of ear oedema, in words” value [4] of the same molecule?
A: inhibited ear oedema mildly, and not statistically significantly

Q: COc1ccc2c3c1O[C@H]1[C@@H](O)C=C[C@H]4[C@@H](C2)N(C)CC[C@@]341 [codeine] was tested. Which “success … of the knees” value [1] did it give?
A: limited success

Q: How did the “% Inhibition of relative ear oedema” value ([4]; 3.0 mg/kg) turn out when CC(C)(C)NCC(O)c1ccc(O)c(CO)c1 (stereo not shown) [Salbutamol] was run?
A: 55%

Q: And the “inhibition of ear oedema, in words” value [4]?
A: inhibited ear oedema significantly

Q: How did the “% Inhibition of relative ear oedema” value ([4]; 30 mg/kg) turn out when C[C@H]1C[C@@H]2[C@H]([C@@H](O)C[C@@]3(C)[C@H]2CC[C@]3(O)C(=O)CO)[C@@]2(C)C=CC(=O)C=C12 [Methylprednisolone] was run?
A: 55%

Q: How did the “success … of the knees” value [1] turn out when CS(=O)(=O)c1ccc(C2=C(c3ccccc3)C(=O)OC2)cc1 [rofecoxib] was run?
A: limited success

— patent publication US20050130935A1, “Combination of a beta-2-adrenoceptor agonists and an aminosugars and their use for the treatment immunomodulatory disorders” (priority 2002, published 2005)
